In publication PMC8162405:

Assay: Double amide coupling of bis-quinoline diacid with diamine (bis-indole diamine 5, or 1,5-pentanediamine for the precursor of 17); TCFH (4 equiv), N-methylimidazole (8 equiv); diamine (ca. 1.1-1.2 equiv, 6 mM in DMF) added at 20 uL/min to the activated diacid; intermolecular amide first, then intramolecular amide closure
Settings: the molecule shown is the open-chain precursor, 2.0 mM

## Nc1ccc2[nH]cc(Cc3c[nH]c4ccc(NC(=O)c5cnc6ccc(NC(=O)CCCCC(=O)Nc7ccc8ncc(C(=O)O)cc8c7)cc6c5)cc34)c2c1 [13a2 (from 12a2 + 5)]
31-membered ring
  ring closure, isolated yield: 21%

## Nc1ccc2[nH]cc(Cc3c[nH]c4ccc(NC(=O)c5cnc6ccc(NC(=O)CCCCCCC(=O)Nc7ccc8ncc(C(=O)O)cc8c7)cc6c5)cc34)c2c1 [13a4 (from 12a4 + 5)]
33-membered ring
  ring closure, isolated yield: 21%

## CC(C)(C)OC(=O)N(CC(=O)Nc1ccc2ncc(C(=O)O)cc2c1)CC(=O)Nc1ccc2ncc(C(=O)Nc3ccc4[nH]cc(Cc5c[nH]c6ccc(N)cc56)c4c3)cc2c1 [13a1 (from 12a1 + 5)]
30-membered ring
  ring closure, isolated yield: 23%

## Nc1ccc2[nH]cc(Cc3c[nH]c4ccc(NC(=O)c5cnc6ccc(NC(=O)CCCCCC(=O)Nc7ccc8ncc(C(=O)O)cc8c7)cc6c5)cc34)c2c1 [13a3 (from 12a3 + 5)]
32-membered ring
  ring closure, isolated yield: 20%

## Nc1ccc2[nH]cc(Cc3c[nH]c4ccc(NC(=O)c5cnc6cc(NC(=O)CCCCCC(=O)Nc7ccc8cc(C(=O)O)cnc8c7)ccc6c5)cc34)c2c1 [13b3 (from 12b3 + 5)]
34-membered ring
  ring closure, isolated yield: 20%

## NCCCCCNC(=O)c1cnc2ccc(NC(=O)CCCCC(=O)Nc3ccc4ncc(C(=O)O)cc4c3)cc2c1 [precursor of 17 (from 12a2 + 1,5-pentanediamine)]
27-membered ring
  ring closure, isolated yield: 15%

## Nc1ccc2[nH]cc(Cc3c[nH]c4ccc(NC(=O)c5cnc6cc(NC(=O)CCCCCCC(=O)Nc7ccc8cc(C(=O)O)cnc8c7)ccc6c5)cc34)c2c1 [13b4 (from 12b4 + 5)]
35-membered ring
  ring closure, isolated yield: 27%

## Nc1ccc2[nH]cc(Cc3c[nH]c4ccc(NC(=O)c5cnc6cc(NC(=O)CCCCC(=O)Nc7ccc8cc(C(=O)O)cnc8c7)ccc6c5)cc34)c2c1 [13b2 (from 12b2 + 5)]
33-membered ring
  ring closure, isolated yield: 21%

## CC(C)(C)OC(=O)N(CCC(=O)Nc1ccc2cc(C(=O)O)cnc2c1)CCC(=O)Nc1ccc2cc(C(=O)Nc3ccc4[nH]cc(Cc5c[nH]c6ccc(N)cc56)c4c3)cnc2c1 [13b1 (from 12b1 + 5)]
34-membered ring
  ring closure, isolated yield: 21%

## Nc1ccc2[nH]cc(Cc3c[nH]c4ccc(NC(=O)c5cnc6cc(NC(=O)CCCCCCCC(=O)Nc7ccc8cc(C(=O)O)cnc8c7)ccc6c5)cc34)c2c1 [13b5 (from 12b5 + 5)]
36-membered ring
  ring closure, isolated yield: 23%
